Patent EP4725551A1, “FUSION POLYPEPTIDE AJ007 AND USE THEREOF” (Nanjing Anji Biotechnology Co., Ltd., priority 2023, dated 2026)
Like-named read-outs stand apart in the source and are kept apart here. Residues, ends and D or L forms follow the SMILES beside them.

Tests used:
[1] = Ocular tissue distribution at equimolar concentration after eye dropping or intravitreal injection, ELISA (Example 5); format: in vivo, C57BL/6J mice; conditions: for active molecules that can reach the RPE/choroid complex: 5 µL per eye; for active molecules that can reach the RPE/choroid complex / maintenance time at the RPE/choroid complex: equimolar concentration
Method: Experimental process: All the mice in the eye drop groups were administered bilateral eye drops 1 time, with 5 µL of the corresponding drug solution in each eye. At the 6 time points of 0 h, 1 h, 3 h, 7 h, 12 h, and 24 h after the completion of administration, the mice in the corresponding groups were respectively subjected to eyeball removal and blood collection, the collected whole blood was immediately centrifuged at 6,000 rpm for 5 minutes, and then, a supernatant was sucked and stored as a sample to be tested. Additionally, 3 tissue sites, namely the vitreous body, the retina, and the RPE/choroid complex, were isolated from an eyeball under a stereomicroscope, into which a phosphate buffer solution (PBS) was added at 1:10 for dilution, followed by grinding and centrifugation at 12,000 rpm for 5 minutes. A supernatant was sucked to serve as a sample to be tested. Subsequently, the concentration of the fusion polypeptide AJ007 or the multifunctional fusion polypeptide VI (HM-1) in each tissue was detected by an enzyme-linked immunosorbent assay (ELISA) method. The ELISA method is as follows: • (1) coating: diluting HM-1 with a certain concentration of a coating solution (CBS) to 1 µg/mL, adding the diluted solution into a microplate at 100 µL per well, and standing overnight at 4°C; • (2) plate washing: discarding the coating solution, adding 265 µL of a PBST washing solution to each well, washing 3 times for 3 minutes each time, and beating to dryness; • (3) blocking: adding 200 µL of a 1% BSA blocking solution to each well, placing the solution in a water bath at 37°C for 1.5 hours, repeating the plate washing process, and beating to dryness; • (4) addition of a sample to be tested and an antibody: first, adding 100 µL of the sample to be tested to a microplate, then adding 100 µL of an HM-1 monoclonal antibody dilution solution at a certain concentration, setting 2-3 replicate wells, shaking uniformly on a shaker at 37°C for 2 minutes, then transferring the mixture to a water bath pot for placement at 37°C for 2 hours, taking out the mixture after a thorough reaction, and repeating the plate washing process; • (5) reaction with an enzyme-labeled secondary antibody: adding a certain concentration of HRP enzyme-labeled goat anti-mouse IgG at 100 µL per well for incubation at 37°C for 1.5 hours, repeating the plate washing process, and beating to dryness; • (6) addition of a substrate: adding 100 µL of a TMB substrate chromogenic solution to each well for color development at room temperature in the dark for a certain period of time; • (7) termination: adding 50 µL of a termination solution to each well to terminate the reaction; and • (8) detection: reading an OD value of each well at 450 nm using a microplate reader.
This example provides an ocular tissue distribution comparison experiment of the polypeptide eye drops (AJ007 eye drops) in Example 2 with an equimolar concentration of the multifunctional fusion polypeptide VI (HM-1), a multifunctional fusion polypeptide VI preparation (HM-1 preparation, with a polypeptide being HM-1 and a formulation of other auxiliary materials being the same as the AJ007 eye drops), a fusion polypeptide AJ007 preparation (TAT-HM-1, with a polypeptide being AJ007 and pure water as a vehicle) after eye dropping, and the multifunctional fusion polypeptide VI (HM-1) after intravitreal injection, which is specifically described below.
Animal grouping: […] C57BL/6J mice were randomly divided into a total of 7 time point groups, including 0 h, 10 min, 1 h, 3 h, 7 h, 12 h, and 24 h, with 2 mice in each group.
Experimental process: All the mice in the eye drop administration groups were administered bilateral eye drops 1 time, with 5 µL of a corresponding drug solution dropped into each eye, while 5 µL of a corresponding drug solution was injected into both eyes in the HM-1 intravitreal injection group. […]

[2] = cited from earlier work

C[C@H](NC(=O)CNC(=O)[C@@H](N)CCCNC(=N)N)C(=O)N[C@@H](CC(=O)O)C(=O)N[C@@H](CCCNC(=N)N)C(=O)N[C@@H](C)C(=O)NCC(=O)NCC(=O)NCC(=O)NCC(=O)N[C@@H](CCCNC(=N)N)C(=O)NCC(=O)N[C@@H](CC(=O)O)C(=O)O [HM-1, Arg-Gly-Ala-Asp-Arg-Ala-Gly-Gly-Gly-Gly-Arg-Gly-Asp] (H-RGADRAGGGGRGD-OH)
active molecules that can reach the RPE/choroid complex ([1]; intravitreal injection): approximately 5729.7 ng/mL
maintenance time at the RPE/choroid complex ([1]; intravitreal injection): the maintenance time is shorter
active molecules that can reach the RPE/choroid complex ([1]; single eye dropping): less than 10 ng/mL
maintenance time at the RPE/choroid complex ([1]; single eye dropping): very short

ranibizumab
concentration reaching the retina after eye dropping, increase ([2]; after linking to a cell-penetrating peptide, patents CN114073774A, CN114668717A): approximately 100 times

axitinib
concentration reaching the retina after eye dropping, increase ([2]; in vivo): 5-10 times

bevacizumab
ability to penetrate through and enter the posterior segment of the eye after eye dropping, increase ([2]; after linking to a cell-penetrating peptide CPP): approximately 10 times

C[C@H](NC(=O)CNC(=O)[C@H](CCCNC(=N)N)NC(=O)[C@H](CCCNC(=N)N)NC(=O)[C@H](CCCNC(=N)N)NC(=O)[C@H](CCCNC(=N)N)NC(=O)[C@H](CCC(N)=O)NC(=O)[C@H](CCCNC(=N)N)NC(=O)[C@H](CCCNC(=N)N)NC(=O)[C@H](CCCCN)NC(=O)[C@H](CCCCN)NC(=O)[C@H](CCCNC(=N)N)NC(=O)CNC(=O)[C@@H](N)Cc1ccc(O)cc1)C(=O)N[C@@H](CC(=O)O)C(=O)N[C@@H](CCCNC(=N)N)C(=O)N[C@@H](C)C(=O)NCC(=O)NCC(=O)NCC(=O)NCC(=O)N[C@@H](CCCNC(=N)N)C(=O)NCC(=O)N[C@@H](CC(=O)O)C(=O)O [AJ007] (H-YGRKKRRQRRRRGADRAGGGGRGD-OH)
ability to penetrate through the posterior segment of ocular, increase compared with HM-1 ([1]; eye dropping): approximately 600 times
active molecules that can reach the RPE/choroid complex ([1]; single eye dropping): 6291.38 ng/mL
active molecules that can reach the RPE/choroid complex ([1]; single eye dropping, listed as TAT-HM-1): 843.28 ng/mL
maintenance time at the RPE/choroid complex ([1]; single eye dropping): the maintenance time is also shorter
